By microsomal CLint is commonly meant a measure of how fast metabolising enzymes remove a compound, apart from limits set by blood flow. The low end stands for greater metabolic stability, the high end for faster metabolism. As usually defined, the Km is the substrate concentration at which the rate is half of its maximum. Broadly, the fraction unbound is free concentration divided by total concentration. For orientation: pKa means the pH at which an ionisable group is half protonated.

Data on 14 molecules can be found in US20210223237A1, “COMPOSITIONS AND METHODS FOR STUDYING DRUG METABOLISM” (Boehringer Ingelheim International GmbH, priority 2020, published 2021).

Where “and” joins values, the source holds several entries; their conditions need not be identical. Equal values may be shown once. Marks after values point to notes of the source that are not given here.

Data set [1] in a line: Non-specific binding of compounds to magnetizable beads alone. The note with it: 30 min incubation of beads (5.3×10^9 beads), bioanalysis of supernatant.
The target of the next data set is T1, UGT2B7 (Homo sapiens, UniProt P16662).
T1 sequence (P16662 24-529): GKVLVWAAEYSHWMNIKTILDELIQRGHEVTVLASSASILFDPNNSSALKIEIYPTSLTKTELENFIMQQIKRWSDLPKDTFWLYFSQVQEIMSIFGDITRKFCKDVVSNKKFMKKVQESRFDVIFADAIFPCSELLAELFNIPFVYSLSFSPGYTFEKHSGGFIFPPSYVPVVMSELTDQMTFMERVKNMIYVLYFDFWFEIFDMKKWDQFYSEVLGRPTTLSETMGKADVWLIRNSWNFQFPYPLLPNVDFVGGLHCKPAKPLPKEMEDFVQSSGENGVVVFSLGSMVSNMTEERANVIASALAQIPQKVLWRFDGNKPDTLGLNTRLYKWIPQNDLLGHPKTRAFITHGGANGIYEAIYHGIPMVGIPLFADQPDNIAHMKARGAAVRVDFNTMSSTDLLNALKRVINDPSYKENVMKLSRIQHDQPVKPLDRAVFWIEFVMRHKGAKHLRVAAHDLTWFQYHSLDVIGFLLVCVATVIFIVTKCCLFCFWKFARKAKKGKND
As to the kind of experiment: in vitro. The settings on record: for microsomal CLint: pH 7.8; for Km: pH 7.8, Km, Michaelis-Menten modeling.

The nature of data set [2]: Microsomal binding (fu,mic) using rapid equilibrium dialysis (RED). The settings on record: compound 1.0 μM, (SD). On the technique in general: In equilibrium dialysis only unbound substance equilibrates across the membrane.
A short description of data set [3]: in vitro. The settings on record: human.
A short description of data set [4]: in vitro. The settings on record: human. This is another data set of the same source.
Data set [5] can be described thus: Microsomal binding (fu,mic) using HLM-beads. The note with it: for fu,mic: HLM-beads, compound 1.0 μM, (SD).
The target in the next data set is T2, CYP2C8 (Homo sapiens, UniProt P10632).
T2 sequence (P10632 1-490): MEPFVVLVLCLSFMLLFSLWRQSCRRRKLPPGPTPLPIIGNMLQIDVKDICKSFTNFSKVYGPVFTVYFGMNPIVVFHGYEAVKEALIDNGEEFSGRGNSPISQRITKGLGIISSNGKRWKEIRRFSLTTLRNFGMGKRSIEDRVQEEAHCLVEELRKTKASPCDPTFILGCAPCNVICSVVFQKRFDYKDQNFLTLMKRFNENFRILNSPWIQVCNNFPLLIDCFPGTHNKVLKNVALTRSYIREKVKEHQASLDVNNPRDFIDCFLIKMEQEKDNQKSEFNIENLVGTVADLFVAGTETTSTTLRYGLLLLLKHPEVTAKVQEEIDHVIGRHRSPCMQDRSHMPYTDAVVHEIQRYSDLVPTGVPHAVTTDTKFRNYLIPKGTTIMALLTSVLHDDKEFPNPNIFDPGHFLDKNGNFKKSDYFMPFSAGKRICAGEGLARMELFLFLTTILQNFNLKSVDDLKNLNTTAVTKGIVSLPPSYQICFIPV

For data set [6] the following is noted: cited from earlier work.
The target of data set [7] is T3, UGT1A1 (Homo sapiens, UniProt P22309).
T3 sequence (P22309 26-533): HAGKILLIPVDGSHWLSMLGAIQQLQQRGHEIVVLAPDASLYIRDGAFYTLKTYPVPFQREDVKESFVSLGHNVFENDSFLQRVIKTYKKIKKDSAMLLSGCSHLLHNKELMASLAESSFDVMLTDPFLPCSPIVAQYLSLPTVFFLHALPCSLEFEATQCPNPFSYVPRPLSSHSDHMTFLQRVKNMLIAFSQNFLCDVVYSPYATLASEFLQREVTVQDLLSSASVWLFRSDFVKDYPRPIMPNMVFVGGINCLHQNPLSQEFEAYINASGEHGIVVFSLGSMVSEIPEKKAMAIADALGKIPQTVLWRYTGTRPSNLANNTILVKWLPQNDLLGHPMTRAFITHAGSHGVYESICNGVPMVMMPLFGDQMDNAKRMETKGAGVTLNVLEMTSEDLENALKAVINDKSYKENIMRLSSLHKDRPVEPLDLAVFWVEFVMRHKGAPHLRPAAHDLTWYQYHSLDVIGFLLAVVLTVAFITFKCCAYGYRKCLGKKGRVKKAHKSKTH
Kind of data set: UGT1A1-catalyzed E2 3-glucuronidation kinetics in HLM suspensions vs HLM-beads.

The target of data set [8] is T3, UGT1A1. Kind of data set: in vitro. The settings on record: pH 7.8.
Substrate in data set [9]: CCN(CC)Cc1cc(Nc2ccnc3cc(Cl)ccc23)ccc1O
As to the kind of experiment: not read. The note with it: other: HLM suspensions; substrate inhibition modeling; pH 7.4.

Substrate in data set [10]: CC(C)c1cccc(C(C)C)c1O
Substrate in data set [11]: C[C@]12CC[C@@H]3c4ccc(O)cc4CC[C@H]3[C@@H]1CC[C@@H]2O
As to the kind of experiment: not read. The note with it: other: HLM suspensions; allosteric sigmoidal modeling; pH 7.8; 37.0 °C.

Where [12] appears, read: human liver microsomes (suspension).
Setting [13] is: human liver microsomes bound to magnetic beads (HLM-beads).

In the case of `OCc1ncc2n1-c1ccc(Cl)cc1C(c1ccccc1F)=NC2` [1′OH midazolam, 1′hydroxymidazolam], the “non-specific binding to the beads” value in data set [1] is “not observed”.

Consider `Cc1cn([C@H]2C[C@H](N=[N+]=[N-])[C@@H](CO)O2)c(=O)[nH]c1=O` [AZT, zidovudine], for which the results for the microsomal CLint at UGT2B7 (setting [12]) and at UGT2B7 were 0.44 µL/min/mg and 2.8 µL/min/mg, respectively. Besides, the Km on UGT2B7 (HLM suspensions) is 1400 ± 0.1 µM; at UGT2B7 (HLM-beads), 490 ± 0.06 µM.

For `Cc1nnc2n1-c1ccc(Cl)cc1C(c1ccccc1)=NC2` [Alprazolam], the “fu,mic” value is on record as 1.0 (0.1) in data set [2] (HLM 0.50 mg/ml), 1.0 (0.1) in data set [2] (HLM 1.0 mg/ml), 0.78 (0.06) in [5] (HLM 0.50 mg/ml) and 0.68 (0.07) in data set [5] (HLM 1.0 mg/ml). The same molecule returned a fraction unbound at 5 min, 1 μM in the data set “in vitro [3]” (microsomes) of 0.81. The molecule also gave a fraction unbound at 6 h, 1 μM in the data set “in vitro [4]” (microsomes) of 0.98. Besides, the results for the “fu,mic ratio HLM-beads/RED” value in data set [5] (HLM 0.50 mg/ml), in data set [5] (HLM 1.0 mg/ml) and in data set [5] (HLM […]) were 0.77, 0.66 and 0.82, respectively.

As to `CCN(CC)Cc1cc(Nc2ccnc3cc(Cl)ccc23)ccc1O` [Amodiaquine, amodiaquine], the “Km, times higher with HLM-beads than with HLM suspensions” value on CYP2C8 was “approximately 2 ×”.

Regarding `CN(C)CCCN1c2ccccc2Sc2ccc(Cl)cc21` [Chlorpromazine, chlorpromazine], the “fu,mic” value in data set [5] (HLM 0.50 mg/ml) is 0.11 (0.02); in data set [5] (HLM […]) it was 0.79 (0.13).

For the molecule `O=C(O)Cc1ccccc1Nc1c(Cl)cccc1Cl` [Diclofenac, diclofenac], the fraction unbound at 5 min, 1 μM in “in vitro [3]” was found to be 0.94; in “in vitro [3]” (setting [13]), 0.87. The fraction unbound at 6 h, 1 μM in “in vitro [4]” (microsomes) is 0.98. The “fu,mic” value in data set [5] (HLM 0.50 mg/ml) is 0.92 (0.03)^a.

Consider `COc1ccc([C@@H]2Sc3ccccc3N(CCN(C)C)C(=O)[C@@H]2OC(C)=O)cc1` [Diltiazem, diltiazem], for which the pKa in data set [6] is listed as 9.4. For the same molecule, the unbound share (fraction unbound) at 5 min, 1 μM stood at 0.99 in “in vitro [3]” and 0.97 in the data set “in vitro [3]” (setting [13]). The molecule further returned a fraction unbound at 6 h, 1 μM in the data set “in vitro [4]” (microsomes) of 0.96. Besides, the “fu,mic ratio HLM-beads/RED” value in data set [5] (HLM 0.50 mg/ml) came out at 1.5; in [5] (HLM 1.0 mg/ml), 1.3; in [5] (HLM […]), 1.0.

`C[C@]12CC[C@@H]3c4ccc(O)cc4CC[C@H]3[C@@H]1CC[C@@H]2O` [E2, estradiol]: at UGT1A1 [7], the “V/K or CLint, fold higher in HLM-beads than in HLM suspensions” value is recorded as “higher” and the “Vmax, HLM-beads compared with HLM suspensions” value was “comparable”. On UGT1A1 [8] (setting [12]), this molecule had a microsomal CLint of 59 µL/min/mg. Besides, the microsomal CLint on UGT1A1 [8] came out at 88 µL/min/mg.

`CN(C)CCCN1c2ccccc2CCc2ccccc21` [Imipramine, imipramine] gave a fraction unbound at 6 h, 1 μM in “in vitro [4]” (microsomes) of 0.4.

With `CCC(C)n1ncn(-c2ccc(N3CCN(c4ccc(OCC5COC(Cn6cncn6)(c6ccc(Cl)cc6Cl)O5)cc4)CC3)cc2)c1=O` (centres unmarked) [Itraconazole, itraconazole], the “fu,mic” value in data set [2] (pre-soak method, HLM 0.50 mg/ml) is reported as 0.036 (0.005)^b; in [2] (pre-soak method, HLM […]) it was 0.29 (0.07)^b; in data set [5] (HLM 0.50 mg/ml), 0.10 (0.01); in data set [5] (HLM […]) it was 0.24 (0.04). In “in vitro [3]” (setting [13]), the fraction unbound at 5 min, 1 μM was determined as 0.073. The molecule also showed a fraction unbound at 6 h, 1 μM in “in vitro [4]” of 0.025. Besides, the “fu,mic ratio HLM-beads/RED” value was determined as 2.8 in data set [5] (HLM 0.50 mg/ml), 2.9 in data set [5] (HLM 1.0 mg/ml) and 0.84 in data set [5] (HLM […]).

For the molecule `CCCCNC(=O)NS(=O)(=O)c1ccc(C)cc1` [Tolbutamide, tolbutamide], in data set [6], the pKa is 5.2.

B1: CYP2C8 (Homo sapiens) (protein)
chain: T2 sequence (P10632 1-490)
As to B1, in the data set “not read [9]”, the Km is 0.732 ± 0.11 µM and the Vmax/Km was 1340 µL/min/mg.

B2: UGT1A9 (Homo sapiens) (protein)
chain: GKLLVVPMDGSHWFTMRSVVEKLILRGHEVVVVMPEVSWQLGRSLNCTVKTYSTSYTLEDLDREFKAFAHAQWKAQVRSIYSLLMGSYNDIFDLFFSNCRSLFKDKKLVEYLKESSFDAVFLDPFDNCGLIVAKYFSLPSVVFARGILCHYLEEGAQCPAPLSYVPRILLGFSDAMTFKERVRNHIMHLEEHLLCHRFFKNALEIASEILQTPVTEYDLYSHTSIWLLRTDFVLDYPKPVMPNMIFIGGINCHQGKPLPMEFEAYINASGEHGIVVFSLGSMVSEIPEKKAMAIADALGKIPQTVLWRYTGTRPSNLANNTILVKWLPQNDLLGHPMTRAFITHAGSHGVYESICNGVPMVMMPLFGDQMDNAKRMETKGAGVTLNVLEMTSEDLENALKAVINDKSYKENIMRLSSLHKDRPVEPLDLAVFWVEFVMRHKGAPHLRPAAHDLTWYQYHSLDVIGFLLAVVLTVAFITFKCCAYGYRKCLGKKGRVKKAHKSKTH
Take B2: the K0.5 in data set [10] is 30 ± 4 μM and 13 ± 2^sig μM.

B3: UGT1A1 (Homo sapiens) (protein)
chain: T3 sequence (P22309 26-533)
On to B3, for which the K0.5 in “not read [11]” came out at 13 ± 1 µM.
